Holding throughout (assay): KinomeScan profiling
Format in all cases: binding

One assay deals with T1, PRKCE (Homo sapiens, UniProt Q02156).
T1 sequence (Q02156 1-737): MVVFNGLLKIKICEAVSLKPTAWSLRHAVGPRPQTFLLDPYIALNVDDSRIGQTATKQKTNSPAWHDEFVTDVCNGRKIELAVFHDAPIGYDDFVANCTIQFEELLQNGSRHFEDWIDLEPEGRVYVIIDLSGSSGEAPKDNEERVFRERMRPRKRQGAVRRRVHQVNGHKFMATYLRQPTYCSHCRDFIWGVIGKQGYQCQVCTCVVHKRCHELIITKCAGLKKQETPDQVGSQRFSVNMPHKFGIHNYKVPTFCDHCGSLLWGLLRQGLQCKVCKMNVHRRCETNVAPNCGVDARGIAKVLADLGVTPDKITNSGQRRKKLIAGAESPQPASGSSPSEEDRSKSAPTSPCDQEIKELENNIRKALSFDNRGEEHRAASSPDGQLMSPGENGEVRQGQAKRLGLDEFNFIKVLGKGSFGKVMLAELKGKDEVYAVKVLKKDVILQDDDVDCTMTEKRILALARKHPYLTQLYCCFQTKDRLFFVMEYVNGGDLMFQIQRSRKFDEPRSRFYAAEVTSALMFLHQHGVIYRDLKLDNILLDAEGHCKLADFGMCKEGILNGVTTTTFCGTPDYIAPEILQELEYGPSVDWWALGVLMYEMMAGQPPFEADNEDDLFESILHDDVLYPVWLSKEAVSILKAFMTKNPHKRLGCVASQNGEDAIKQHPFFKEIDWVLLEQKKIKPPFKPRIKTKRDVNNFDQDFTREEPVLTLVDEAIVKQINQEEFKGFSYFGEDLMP
To be noted: read-out: % control. The gist of the method:
(§1)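 Normalised RLU (% control; DMSO 100%, positive control 0%) was measured for compounds dosed at 1 μM over 468 kinases, active cut-off <35%.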

Assay [1] addresses T2, ABL1(Q252H)-nonphosphorylated (Homo sapiens, UniProt P00519, Q252H).
T2 construct: purchased KinomeScan®
The note with it: read-out: % control. A digest of the protocol:
as §1

The target of another assay is MYLK (Homo sapiens, UniProt Q15746). The note with it: read-out: % control. The gist of the method: as §1
The target in another assay is T3, ADCK3 (Homo sapiens, UniProt Q8NI60).
T3 construct: purchased KinomeScan®
The note with it: ADCK3, 1 μM; read-out: % control. A digest of the protocol:
as §1

The next assay has as its target T4, ANKK1 (Homo sapiens, UniProt Q8NFD2).
T4 construct: purchased KinomeScan®
T4 sequence (Q8NFD2 1-765): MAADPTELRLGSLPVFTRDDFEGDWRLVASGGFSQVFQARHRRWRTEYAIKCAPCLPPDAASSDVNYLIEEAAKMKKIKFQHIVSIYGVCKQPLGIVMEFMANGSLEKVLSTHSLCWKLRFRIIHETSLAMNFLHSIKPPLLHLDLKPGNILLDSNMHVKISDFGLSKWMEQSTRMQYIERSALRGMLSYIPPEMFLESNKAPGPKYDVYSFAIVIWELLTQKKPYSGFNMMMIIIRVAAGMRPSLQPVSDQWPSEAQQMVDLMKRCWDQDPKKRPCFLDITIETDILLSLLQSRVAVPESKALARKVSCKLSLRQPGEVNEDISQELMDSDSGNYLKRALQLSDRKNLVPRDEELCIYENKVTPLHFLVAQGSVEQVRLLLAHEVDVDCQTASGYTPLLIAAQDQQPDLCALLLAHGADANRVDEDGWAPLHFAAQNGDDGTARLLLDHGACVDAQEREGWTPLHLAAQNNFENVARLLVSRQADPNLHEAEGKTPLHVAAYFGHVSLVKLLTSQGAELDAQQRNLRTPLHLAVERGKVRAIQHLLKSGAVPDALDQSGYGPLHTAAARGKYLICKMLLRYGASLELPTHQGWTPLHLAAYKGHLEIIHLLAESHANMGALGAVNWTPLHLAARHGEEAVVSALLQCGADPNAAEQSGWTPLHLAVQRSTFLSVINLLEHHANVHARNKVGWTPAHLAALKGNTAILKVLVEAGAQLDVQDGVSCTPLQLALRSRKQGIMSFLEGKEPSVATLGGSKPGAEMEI
The note with it: ANKK1, 1 μM; read-out: % control. The gist of the method:
as §1

The next assay has as its target NDR2 (Homo sapiens, UniProt Q9Y2H1). To be noted: NDR2, 1 μM; read-out: % control. The gist of the method:
as §1

For a further assay, the target named is EGFR(T790M) (Homo sapiens, UniProt P00533, T790M). The note with it: read-out: % control. A digest of the protocol: as §1
EGFR(T790M), sequence (P00533 25-1210 T790M): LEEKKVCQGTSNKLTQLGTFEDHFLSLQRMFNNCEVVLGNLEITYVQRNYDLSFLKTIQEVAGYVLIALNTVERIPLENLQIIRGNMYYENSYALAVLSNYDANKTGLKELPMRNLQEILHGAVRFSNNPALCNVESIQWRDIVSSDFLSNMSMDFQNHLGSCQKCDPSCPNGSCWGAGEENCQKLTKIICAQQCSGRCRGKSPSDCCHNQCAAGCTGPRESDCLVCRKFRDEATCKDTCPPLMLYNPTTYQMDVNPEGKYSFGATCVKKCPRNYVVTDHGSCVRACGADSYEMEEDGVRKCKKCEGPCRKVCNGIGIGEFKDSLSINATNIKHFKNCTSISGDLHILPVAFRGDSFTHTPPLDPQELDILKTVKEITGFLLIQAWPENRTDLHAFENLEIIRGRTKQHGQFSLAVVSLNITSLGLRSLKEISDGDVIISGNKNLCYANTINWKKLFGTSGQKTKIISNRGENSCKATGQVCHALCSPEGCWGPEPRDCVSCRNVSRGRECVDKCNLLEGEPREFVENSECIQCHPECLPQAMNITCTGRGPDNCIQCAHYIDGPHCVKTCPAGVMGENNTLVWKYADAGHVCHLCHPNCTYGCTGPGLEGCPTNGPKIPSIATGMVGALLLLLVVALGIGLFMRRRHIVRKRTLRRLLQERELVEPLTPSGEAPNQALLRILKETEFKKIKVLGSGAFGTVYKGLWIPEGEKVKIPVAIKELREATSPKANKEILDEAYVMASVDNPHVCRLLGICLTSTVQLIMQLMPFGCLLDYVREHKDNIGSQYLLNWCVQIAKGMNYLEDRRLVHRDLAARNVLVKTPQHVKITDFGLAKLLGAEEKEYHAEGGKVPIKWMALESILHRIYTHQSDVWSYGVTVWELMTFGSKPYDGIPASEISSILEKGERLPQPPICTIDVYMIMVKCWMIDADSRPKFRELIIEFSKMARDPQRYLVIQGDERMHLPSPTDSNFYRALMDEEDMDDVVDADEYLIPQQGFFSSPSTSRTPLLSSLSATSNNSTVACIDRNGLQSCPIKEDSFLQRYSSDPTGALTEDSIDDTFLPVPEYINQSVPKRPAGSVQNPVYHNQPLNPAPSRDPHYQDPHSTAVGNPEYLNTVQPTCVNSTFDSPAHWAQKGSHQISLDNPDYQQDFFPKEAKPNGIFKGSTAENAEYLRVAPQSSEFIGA

NDR2, sequence (Q9Y2H1 whole entry): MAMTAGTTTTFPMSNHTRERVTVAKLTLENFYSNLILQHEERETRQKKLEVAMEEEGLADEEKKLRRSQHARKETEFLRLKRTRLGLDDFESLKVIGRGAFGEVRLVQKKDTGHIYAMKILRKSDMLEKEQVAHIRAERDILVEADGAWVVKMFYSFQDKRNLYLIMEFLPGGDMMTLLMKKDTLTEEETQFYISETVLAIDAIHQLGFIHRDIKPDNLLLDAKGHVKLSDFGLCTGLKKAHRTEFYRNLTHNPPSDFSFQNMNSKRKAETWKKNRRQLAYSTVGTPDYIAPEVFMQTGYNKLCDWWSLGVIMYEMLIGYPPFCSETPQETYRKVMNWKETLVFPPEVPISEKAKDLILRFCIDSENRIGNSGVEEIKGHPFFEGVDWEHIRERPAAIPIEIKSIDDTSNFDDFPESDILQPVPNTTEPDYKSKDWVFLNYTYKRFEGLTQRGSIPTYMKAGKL
MYLK, sequence (Q15746 whole entry): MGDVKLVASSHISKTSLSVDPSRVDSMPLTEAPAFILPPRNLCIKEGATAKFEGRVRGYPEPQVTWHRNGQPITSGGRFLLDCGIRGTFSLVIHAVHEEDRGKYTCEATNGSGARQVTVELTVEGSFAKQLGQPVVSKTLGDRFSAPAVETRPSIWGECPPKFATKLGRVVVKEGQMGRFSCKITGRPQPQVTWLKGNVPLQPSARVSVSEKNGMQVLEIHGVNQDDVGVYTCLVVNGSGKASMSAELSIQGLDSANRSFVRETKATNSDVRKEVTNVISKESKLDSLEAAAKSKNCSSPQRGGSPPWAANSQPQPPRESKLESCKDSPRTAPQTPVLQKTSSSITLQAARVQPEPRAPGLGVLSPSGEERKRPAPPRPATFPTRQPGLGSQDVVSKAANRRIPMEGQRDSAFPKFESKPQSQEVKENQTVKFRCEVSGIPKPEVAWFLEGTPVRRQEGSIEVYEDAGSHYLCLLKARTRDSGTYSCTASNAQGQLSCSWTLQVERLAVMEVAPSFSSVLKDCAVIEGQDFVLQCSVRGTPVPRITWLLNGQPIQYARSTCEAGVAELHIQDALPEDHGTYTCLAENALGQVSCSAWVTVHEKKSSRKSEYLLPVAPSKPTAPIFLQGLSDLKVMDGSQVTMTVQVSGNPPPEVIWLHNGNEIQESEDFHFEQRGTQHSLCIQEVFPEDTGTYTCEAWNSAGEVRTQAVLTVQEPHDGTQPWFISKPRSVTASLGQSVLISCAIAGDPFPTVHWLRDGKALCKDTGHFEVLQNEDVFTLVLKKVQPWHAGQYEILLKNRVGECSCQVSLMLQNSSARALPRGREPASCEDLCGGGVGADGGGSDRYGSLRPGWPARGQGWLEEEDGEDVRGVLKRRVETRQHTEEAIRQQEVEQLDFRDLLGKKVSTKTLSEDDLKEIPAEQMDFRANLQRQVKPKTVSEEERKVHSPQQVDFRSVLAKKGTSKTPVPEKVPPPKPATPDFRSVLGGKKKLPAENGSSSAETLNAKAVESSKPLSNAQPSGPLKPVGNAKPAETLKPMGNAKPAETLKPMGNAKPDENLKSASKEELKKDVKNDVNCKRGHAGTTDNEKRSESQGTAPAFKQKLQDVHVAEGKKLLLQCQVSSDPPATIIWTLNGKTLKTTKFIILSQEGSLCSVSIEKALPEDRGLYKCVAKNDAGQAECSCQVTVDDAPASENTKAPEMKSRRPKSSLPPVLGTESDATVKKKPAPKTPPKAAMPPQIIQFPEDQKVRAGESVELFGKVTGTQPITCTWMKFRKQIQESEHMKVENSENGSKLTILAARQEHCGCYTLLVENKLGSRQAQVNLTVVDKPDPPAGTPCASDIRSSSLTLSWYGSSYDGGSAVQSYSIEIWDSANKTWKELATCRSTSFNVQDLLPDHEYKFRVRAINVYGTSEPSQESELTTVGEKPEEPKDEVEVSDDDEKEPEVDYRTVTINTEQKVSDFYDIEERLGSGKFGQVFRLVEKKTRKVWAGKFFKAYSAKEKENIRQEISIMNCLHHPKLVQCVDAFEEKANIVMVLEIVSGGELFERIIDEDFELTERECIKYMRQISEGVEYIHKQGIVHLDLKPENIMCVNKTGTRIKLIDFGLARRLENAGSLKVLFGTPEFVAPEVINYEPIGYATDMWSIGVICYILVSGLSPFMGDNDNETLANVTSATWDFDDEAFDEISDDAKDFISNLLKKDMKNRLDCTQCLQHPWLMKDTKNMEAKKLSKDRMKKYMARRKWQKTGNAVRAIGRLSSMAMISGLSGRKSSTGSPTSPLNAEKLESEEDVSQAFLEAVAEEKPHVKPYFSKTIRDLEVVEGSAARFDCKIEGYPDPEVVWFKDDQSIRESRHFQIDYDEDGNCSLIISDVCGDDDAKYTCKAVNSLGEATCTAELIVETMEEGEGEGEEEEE
T3 sequence (Q8NI60 163-647): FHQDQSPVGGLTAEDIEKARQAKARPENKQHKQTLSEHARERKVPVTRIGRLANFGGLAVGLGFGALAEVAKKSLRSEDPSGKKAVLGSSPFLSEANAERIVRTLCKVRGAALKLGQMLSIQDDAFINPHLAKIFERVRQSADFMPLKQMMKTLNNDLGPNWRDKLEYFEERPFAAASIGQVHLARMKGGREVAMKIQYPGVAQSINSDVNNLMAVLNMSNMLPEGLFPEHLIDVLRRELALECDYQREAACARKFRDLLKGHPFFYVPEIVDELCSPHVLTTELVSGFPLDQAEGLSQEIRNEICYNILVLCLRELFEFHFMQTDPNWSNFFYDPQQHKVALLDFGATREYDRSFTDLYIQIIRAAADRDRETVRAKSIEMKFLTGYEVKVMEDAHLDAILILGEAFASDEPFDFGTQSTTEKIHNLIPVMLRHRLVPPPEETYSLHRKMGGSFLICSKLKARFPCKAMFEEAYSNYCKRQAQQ

As to `CNc1c(-c2ccc(C(=O)N3CCC(N4CCOCC4)CC3)cc2)cnc2[nH]cc(Cl)c12` [Compound 96, (4-(3-chloro-4-(methylamino)-1H-pyrrolo[2,3-b]pyridin-5-yl)phenyl)(4-morpholinopiperidin-1-yl)methanone], the remaining binding at 1 µM turned out to be 66% on PRKCE; 64% in assay [1]; 85% on MYLK; 100% at ADCK3; 51% on ANKK1; 19% on NDR2. Further, the remaining binding at 1 µM on EGFR(T790M) is 83%.

In the case of `O=C(c1ccc(-c2cnc3[nH]cc(Cl)c3c2NC2CCCC2)cc1)N1CCC(N2CCOCC2)CC1` [Compound 101, (4-(3-chloro-4-(cyclopentylamino)-1H-pyrrolo[2,3-b]pyridin-5-yl)phenyl)(4-morpholinopiperidin-1-yl)methanone], the remaining binding at 1 µM stood at 70% on PRKCE; 92% in assay [1]; 83% at MYLK; 68% at ADCK3; 100% at ANKK1; 63% at NDR2. Further, the remaining binding at 1 µM on EGFR(T790M) came to 100%.

With `CNc1c(-c2cnn([C@H]3CCN(C(C)=O)C[C@@H]3F)c2)cnc2[nH]cc(Cl)c12` [Compound 77, 1-((3S,4S)-4-(4-(3-chloro-4-(methylamino)-1H-pyrrolo[2,3-b]pyridin-5-yl)-1H-pyrazol-1-yl)-3-fluoropiperidin-1-yl)ethan-1-one], the remaining binding at 1 µM amounted to 51% on PRKCE; 50% in assay [1]; 72% on MYLK; 100% on ADCK3; 73% on ANKK1; 21% at NDR2. In addition, the remaining binding at 1 µM at EGFR(T790M) was 93%.

Source of the values: patent US12275731B2, “Azaindole inhibitors of wild-type and mutant forms of LRRK2” (DANA-FARBER CANCER INSTITUTE, INC., priority 2018, dated 2025).
